Like-named read-outs stand apart in the source and are kept apart here. Peptide text beside a SMILES is read from it.
B1: Peptide B: peptide having the amino acid sequence of SEQ ID NO: 3, 2 repeats of the 38 amino acid sequence contained in natural sericin (WO 02/086133) (protein)
chain: SSTGSSSNTDSNSNSAGSSTSGGSSTYGYSSNSRDGSVSSTGSSSNTDSNSNSAGSSTSGGSSTYGYSSNSRDGSV
modifications: Peptide derived from sericin

Tests used:
insect cell Sf9 [1] = assay: Evaluation Test 2: Cell growth-promoting activity (MTT assay under serum-deprived conditions); assay type: cell-based; details: Sf9 cells; for OD 595 nm Average ± Standard deviation (n = 4): medium without FCS, 9 days at 27.5° C.
Method: Cell growth-promoting activity of the peptide according to the present invention was evaluated using an insect cell Sf9 (Invitrogen).
It is known that marked cell death as shown in Evaluation Test 1 and thereafter a decrease in cell growth occur when the Sf9 cells are exposed to drastic serum-deprived conditions. In this test, the cells to be tested were exposed under such drastic serum-deprived conditions and their growth ability was measured to evaluate cell growth-promoting effect of the peptide according to the present invention.
A cell suspension was prepared in the same manner as in Evaluation test 1, and peptide solutions were prepared using peptide A (the present invention) as in Evaluation test 1. Next, 50 μl of this cell suspension and 50 μl each of the peptide solutions were dispensed on a 96-well cell culture plate in the same manner as in Evaluation test 1, and this culture plate was incubated at 27.5° C. for 9 days.
After 9 days of incubation, cell growth-promoting effect was evaluated by the MTT assay.
Specifically, to each well of the 96-well plate incubated for 9 days was added 5 μl of 5 mg/ml 3-(4,5-dimethyl-2-thiazolyl)-2,5-diphenyl tetrazolium bromide (MTT) in phosphate-buffered physiological saline, and the plate was incubated at 27.5° C. for further 5 hours. During this culture process, MTT is transformed into insoluble formazan in viable cells. After 5 hours of incubation, cell culture supernatant was completely removed and then 200 μl each of a 10 mM […] solution with 10% SDS was added to each well to completely dissolve the cells and formazan in the cells. Next, the absorption coefficient at 595 nm was measured for each well using a microplate reader.
As a comparative example, an experiment was carried out in the same manner as the one with the abovementioned peptide A, except that peptide B was used in place of peptide A (the present invention), and then the absorption coefficient at 595 nm was measured for each well.
As another comparative example, an experiment was carried out in the same manner as described above for peptide A, except that a bovine serum albumin (Sigma) solution was used in place of the abovementioned peptide solutions, and then the absorption coefficient at 595 nm was measured for each well.
Here the value of the absorption coefficient in the NTT assay increases with an increase in viable cell density.

insect cell Sf9 [2] = assay type: cell-based; details: Sf9 cells; for Survival rate (%) Average ± Standard deviation (n = 4): Sf900IISFM medium without FCS, 5 days at 27.5° C.
Method: Cell death-preventing activity of the peptide according to the present invention was evaluated using an insect cell Sf9 (Invitrogen).
The Sf9 cell is usually subcultured using an Sf900IISFM medium (Invistrogen) containing 10% FCS (fetal calf serum) (Sigma) at a temperature of 27.5° C. It is known that marked cell death occurs when the Sf9 cells thus cultured are abruptly transferred into a medium without FCS and thus exposed to drastic serum-deprived conditions. In this test, cells to be tested were exposed under such drastic serum-deprived conditions and their survival rate was measured to evaluate cell death-preventing effect of the peptide according to the present invention.
First, Sf9 cells subcultured using a medium supplemented with 10% FCS were centrifuged at 1000 rpm at 4° C. for 5 minutes. Next, the supernatant was removed and the precipitated cells were suspended in an Sf900IISFM medium without FCS. The suspension was recentrifuged at 1000 rpm at 4° C. for 5 minutes to wash the cells.
Next, in order to expose the cells under drastic serum-deprived conditions, the washed cells were resuspended in an Sf900IISFM medium without FCS and a cell suspension having a cell density of 5×10^5 cells/ml was prepared.
On the other hand, peptide A (the present invention) was dissolved in an Sf900IISFM medium without FCS and peptide solutions were prepared at peptide concentrations of 0.2 mg/ml, 0.6 mg/ml, and 2.0 mg/ml. The peptide solutions thus prepared were sterilized by filtration.
Next, 50 μl of the abovementioned cell suspension and 50 μl each of the abovementioned peptide solutions were dispensed on a 96-well cell culture plate at a final cell density of 2.5×10^5 cells/ml and final peptide concentrations of 0.1 mg/ml, 0.3 mg/ml, and 1.0 mg/ml, respectively. This culture plate was incubated at 27.5° C. for 5 days.
After 5 days of incubation, cells were stained with Trypan blue and the number of dead cells and the number of viable cells were counted to obtain the survival rate. Here the survival rate means the ratio of the viable cell count to the total cell count upon cell counting.
As a comparative example, an experiment was carried out in the same manner as described above for peptide A, except that peptide B was used in place of peptide A (the present invention), to obtain the survival rate.
As another comparative example, an experiment was carried out in the same manner as described above for peptide A, except that a bovine serum albumin (Sigma) solution was used in place of the abovementioned peptide solutions, to obtain the survival rate.

[3] = sample concentration 1.0 mg/ml, listed as peptide A

Row | Molecule | OD 595 nm Average ± Standard deviation (n = 4) (insect cell Sf9 [1]; sample concentration 0.1 mg/ml) | OD 595 nm Average ± Standard deviation (n = 4) (insect cell Sf9 [1]; sample concentration 0.3 mg/ml) | OD 595 nm Average ± Standard deviation (n = 4) (insect cell Sf9 [1]; sample concentration 1.0 mg/ml) | OD 595 nm Average ± Standard deviation (n = 4) (insect cell Sf9 [1]; [3]) | cell growth-promoting activity compared with peptide B (comparative example) (insect cell Sf9 [1]; serum-deprived, 9 days) | Survival rate (%) Average ± Standard deviation (n = 4) (insect cell Sf9 [2]; sample concentration 0.1 mg/ml) | Survival rate (%) Average ± Standard deviation (n = 4) (insect cell Sf9 [2]; sample concentration 0.3 mg/ml) | Survival rate (%) Average ± Standard deviation (n = 4) (insect cell Sf9 [2]; sample concentration 1.0 mg/ml) | Survival rate (%) Average ± Standard deviation (n = 4) (insect cell Sf9 [2]; [3]) | survival rate compared with peptide B (comparative example) (insect cell Sf9 [2]; serum-deprived, 5 days)
1 | C[C@@H](O)[C@H](NC(=O)[C@H](CO)NC(=O)[C@H](CO)NC(=O)CNC(=O)CNC(=O)[C@@H](N)CO)C(=O)N[C@@H](Cc1ccc(O)cc1)C(=O)NCC(=O)N[C@@H](Cc1ccc(O)cc1)C(=O)N[C@@H](CO)C(=O)O [Peptide A] (H-SGGSSTYGYS-OH; N-terminus assumed) | 0.48 ± 0.01 | 0.80 ± 0.02 | 0.92 ± 0.02 | about 0.9 | higher than that with peptide B | 28.5 ± 3.4% | 47.3 ± 2.9% | 58.0 ± 3.2% | about 60% | higher than that with peptide B
2 | bovine serum albumin [reference compound] |  | 0.90 ± 0.03 |  |  |  |  | 62.5 ± 3.0% |  |  | 
3 | B1 |  | 0.72 ± 0.03 |  |  |  |  | 46.1 ± 2.2% |  |  | 
